Tests used:
[1] = tested on: IL-1β release in THP-1 cells; assay: IL-1β release assay; type: cell-based; conditions: Homo sapiens; PMA-differentiated THP-1 cells, LPS + nigericin, cleaved IL-1β by JESS
Experimental: Approximately 1.5 million THP-1 cells were plated in each well of a 6-well TC plate and incubated with 40 nM PMA in RPMI (10% FBS, 1% Penstrep) for 24 hours. The media was then removed and cells were rested in RPMI (10% FBS, 1% Penstrep) for 24 hours after which time the media was removed and cells were pre-treated for 2 hours with various concentrations of compounds of interest (typically serial 3-fold dilution in RPMI+5% FBS, concentrations ranging from 1 μM to 0.5 nM) in RPMI (5% FBS). The media was again removed and cells were incubated with 250 ng/mL LPS and compounds of interest (concentrations as above) in RMPI (5% FBS) for 2 hours. The media was removed for a last time and cells were incubated with 20 μM nigericin and compounds of interest (concentrations as above) in Opti-MEM for 30 minutes. Cell media was then collected and the amount of cleaved IL-1β was determined using a JESS instrument (Protein Simple) and standard protocols. Cleaved Il-1β antibody was obtained from Cell Signaling (catalogue #83186S) and was used at 1:20 dilution in antibody diluent 2. Protein Simple 1× anti-Rabbit HRP secondary antibody was used along with Protein Simple luminol and peroxide for chemiluminescent detection. Primary antibody incubation time was increased from 30 minutes to 60 minutes.
(§1) Representative compounds were tested for inhibitory activity against NEK7 and IL-1β release according to the procedures described above.

[2] = biological target: T1, full-length recombinant human NEK7 (Homo sapiens, UniProt Q8TDX7); assay: NEK7 enzymatic assay; type: biochemical; conditions: casein substrate, [32P]-ATP, radiometric P81 filter assay
T1 construct: full-length recombinant human NEK7; GST (N); purchased SignalChem N09-10G; host or cells: Sf9 insect cells (baculovirus)
Experimental: Casein substrate (from bovine milk, hydrolyzed and partially dephosphorylated mixture of α, β, and κ caseins, obtained from Sigma Aldrich, catalogue #C4765, diluted in distilled water to a final concentration of 1 mg/mL, assay concentration 20 μM) and full-length recombinant human NEK7 (expressed by baculovirus in Sf9 insect cells using a N-terminal GST tag, obtained from SignalChem, catalogue #N09-10G, […], assay concentration 70 nM) were mixed in assay buffer (20 mM Hepes pH 7.5, 10 mM MgCl2, 1 mM EGTA, 0.02% Brij35, 0.02 mg/mL BSA, 0.1 mM […], 2 mM DTT, 1% DMSO). Compounds of interest (in DMSO, serial 3-fold dilution from 10 μM to 0.5 nM) or control (1% DMSO) were dispensed into the kinase reaction mixture by Acoustic technology (Echo550; nanoliter range). After incubation at room temperature for 20 minutes, the kinase reaction was initiated by addition of [^32P]-ATP (Specific activity 10 μUCi/μl) and the mixture was incubated at room temperature for 2 hours. The reaction was then stopped by spotting the reaction mixture on strips of phosphocellulose P81 paper. Following washing, the radioactivity of the P81 paper was measured and kinase activity data were expressed as the percent remaining kinase activity in test samples compared to vehicle (dimethyl sulfoxide) reactions. IC50 values and curve fits were obtained using Prism (GraphPad Software).
as §1

T1 sequence (Q8TDX7 whole entry): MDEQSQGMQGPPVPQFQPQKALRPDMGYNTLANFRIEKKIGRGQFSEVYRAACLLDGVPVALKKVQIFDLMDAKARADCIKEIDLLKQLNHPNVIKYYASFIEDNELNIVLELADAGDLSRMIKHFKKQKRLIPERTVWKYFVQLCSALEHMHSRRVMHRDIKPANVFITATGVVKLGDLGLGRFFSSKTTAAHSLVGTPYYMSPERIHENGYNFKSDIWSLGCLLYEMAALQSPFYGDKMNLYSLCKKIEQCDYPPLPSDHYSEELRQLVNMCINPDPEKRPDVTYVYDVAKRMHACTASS

Structure (SMILES)	IC50 [1]	IC50 [2]
Cc1c[nH]c2nccc(Oc3ccc(NC(=O)Nc4ccc(CN5CCN(C)CC5)c(C(F)(F)F)c4)c(F)c3)c12 [Example I-36, 1-(2-fluoro-4-((3-methyl-1H-pyrrolo[2,3-b]pyridin-4-yl)oxy)phenyl)-3-(4-((4-methylpiperazin-1-yl)methyl)-3-(trifluoromethyl)phenyl)urea]	50 to 250 nM	200 to 500 nM
CCN1CCN(Cc2ccc(NC(=O)Nc3ccc(Oc4ccnc5[nH]cc(Cl)c45)cc3F)cc2C(F)(F)F)CC1 [Example I-37, 1-(4-((3-chloro-1H-pyrrolo[2,3-b]pyridin-4-yl)oxy)-2-fluorophenyl)-3-(4-((4-ethylpiperazin-1-yl)methyl)-3-(trifluoromethyl)phenyl)urea]	< 50 nM	
CN1CCC(Oc2ccc(NC(=O)Nc3ccc(Oc4ccnc5[nH]cc(Cl)c45)cc3F)cc2C(F)(F)F)CC1 [Example I-39, 1-(4-((3-chloro-1H-pyrrolo[2,3-b]pyridin-4-yl)oxy)-2-fluorophenyl)-3-(4-((1-methylpiperidin-4-yl)oxy)-3-(trifluoromethyl)phenyl)urea]	50 to 250 nM	200 to 500 nM
CN1CCC(=Cc2ccc(NC(=O)Nc3ccc(Oc4ccnc5[nH]cc(Cl)c45)cc3F)cc2C(F)(F)F)CC1 [Example I-40, 1-(4-((3-chloro-1H-pyrrolo[2,3-b]pyridin-4-yl)oxy)-2-fluorophenyl)-3-(4-((1-methylpiperidin-4-ylidene)methyl)-3-(trifluoromethyl)phenyl)urea]	< 50 nM	500 to 2000 nM
CN1CCC(Oc2ncc(NC(=O)Nc3ccc(Oc4ccnc5[nH]cc(Cl)c45)cc3F)cc2C(F)(F)F)CC1 [Example I-58, 1-(4-((3-chloro-1H-pyrrolo[2,3-b]pyridin-4-yl)oxy)-2-fluorophenyl)-3-(6-((1-methylpiperidin-4-yl)oxy)-5-(trifluoromethyl)pyridin-3-yl)urea]	50 to 250 nM	200 to 500 nM
CC(=O)N1CCC(Oc2ccc(NC(=O)Nc3ccc(Oc4ccnc5[nH]cc(Cl)c45)cc3F)cc2C(F)(F)F)CC1 [Example I-59, 1-(4-((1-acetylpiperidin-4-yl)oxy)-3-(trifluoromethyl)phenyl)-3-(4-((3-chloro-1H-pyrrolo[2,3-b]pyridin-4-yl)oxy)-2-fluorophenyl)urea]	250 to 1000 nM	> 2000 nM

More lines, now with the values ahead:

IC50 [1]	IC50 [2]	Structure (SMILES)
50 to 250 nM		CN1CCN(Cc2ccc(NC(=O)Nc3ccc(Oc4ccnc5[nH]cc(C6CC6)c45)cc3F)cc2C(F)(F)F)CC1 [Example I-7, 1-(4-((3-cyclopropyl-1H-pyrrolo[2,3-b]pyridin-4-yl)oxy)-2-fluorophenyl)-3-(4-((4-methylpiperazin-1-yl)methyl)-3-(trifluoromethyl)phenyl)urea]
< 50 nM		Cc1[nH]c2nccc(Oc3ccc(NC(=O)Nc4ccc(CN5CCN(C)CC5)c(C(F)(F)F)c4)c(F)c3)c2c1Cl [Example I-11, 1-(4-((3-chloro-2-methyl-1H-pyrrolo[2,3-b]pyridin-4-yl)oxy)-2-fluorophenyl)-3-(4-((4-methylpiperazin-1-yl)methyl)-3-(trifluoromethyl)phenyl)urea]
< 50 nM	< 200 nM	CN1CCN(Cc2ccc(NC(=O)Nc3ccc(Oc4ccnc5[nH]cc(Cl)c45)cn3)cc2C(F)(F)F)CC1 [Example I-24, 1-(5-((3-chloro-1H-pyrrolo[2,3-b]pyridin-4-yl)oxy)pyridin-2-yl)-3-(4-((4-methylpiperazin-1-yl)methyl)-3-(trifluoromethyl)phenyl)urea]

Source: patent US20250177382A1, “NEK7 INHIBITORS” (Halia Therapeutics, Inc., priority 2021, published 2025)
